The text below walks through data of ChEMBL document CHEMBL5316281, “Trojan Horse Siderophore Conjugates Induce Pseudomonas aeruginosa Suicide and Qualify the TonB Protein as a Novel Antibiotic Target” (2023).

Structures are written as SMILES. Activity calls are given as the source filed them. The rule behind the calls is not given here. Where a SMILES comes first, the peptide text is derived from it. [ ]: non-standard residue; d: D form. The star is where a group is joined. X5 = O=C(CCSSCCC(=O)*)NCCOCCOCCOCCOCCOCCn1cc(CCCC(=O)Nc2c(CNC(=O)c3cccc(O)c3O)cc(CNC(=O)c3cccc(O)c3O)cc2CNC(=O)c2cccc(O)c2O)nn1; Benzoyl(2,3-diOH) = O=C(c1cccc(O)c1O)*

Assay [1] deals with Pseudomonas aeruginosa. Nature of the assay: Antimicrobial activity against Pseudomonas aeruginosa harboring deltapvdF-deltapchA mutant assessed as inhibition of bacterial growth by measuring minimal inhibitory concentration incubated for 48 hrs in presence of iron-depleted CAA medium. It counts as functional.
The subject of assay [2] is Pseudomonas aeruginosa. Put plainly: Antimicrobial activity against Pseudomonas aeruginosa PAO1 assessed as inhibition of bacterial growth in presence of iron-depleted CAA medium. Type of assay: functional, organism-based.
In assay [3] the test system is Pseudomonas aeruginosa. Nature of the assay: Antimicrobial activity against Pseudomonas aeruginosa harboring deltapvdF-deltapchA mutant assessed as inhibition of bacterial growth by measuring minimal inhibitory concentration incubated for 24 hrs in presence of iron-depleted CAA medium. It counts as functional.

`CC[C@@H](C)[C@@H](NC(=O)[C@H](NC(=O)c1cccc(O)c1O)C(C)C)C(=O)N[C@H](CCC(=O)O)C(=O)N[C@H](CC(C)C)C(=O)NCC(=O)N[C@H](CCC(=O)O)C(=O)N[C@H](CCC(N)=O)C(=O)N[C@@H](C(=O)N[C@@H](C(=O)N[C@@H](C(=O)N[C@H](C)C(=O)N[C@@H](C(=O)N[C@H](C)C(=O)N[C@H](CCC(N)=O)C(=O)N[C@H](CCC(=O)O)C(=O)N[C@H](CCC(=O)O)C(=O)N[C@@H](C(=O)N[C@H](CCCCN)C(=O)N[C@H](CCC(N)=O)C(=O)N[C@H](CCCCN)C(N)=O)[C@H](C)O)[C@H](C)O)C(C)C)C(C)C)[C@H](C)O` ({Benzoyl(2,3-diOH)}-[dV][dI][dE][dL]G[dE][dQ][dT][dV][dV][dA][dT][dA][dQ][dE][dE][dT][dK][dQ][dK]-NH2): the MIC in assay [1] and in assay [3] was > 64 µM each time. In addition, the outcome in assay [2] was inactive.
On to `CC[C@H](C)[C@H](NC(=O)[C@H](CCSC)NC(=O)[C@@H](NC(=O)[C@H](C)NC(=O)CNC(=O)[C@H](CC(C)C)NC(=O)[C@H](CC(=O)O)NC(=O)[C@@H](NC(=O)[C@H](CO)NC(=O)[C@H](CO)NC(=O)[C@H](CC(=O)O)NC(=O)c1cccc(O)c1O)C(C)C)[C@@H](C)O)C(=O)N[C@H](C(=O)N[C@@H](CO)C(=O)N[C@@H](CC(N)=O)C(=O)N[C@@H](CCC(N)=O)C(=O)N[C@@H](CC(C)C)C(=O)NCC(=O)N[C@H](C(=O)N[C@H](C(=O)N[C@@H](CCCCN)C(N)=O)[C@@H](C)CC)[C@@H](C)O)[C@@H](C)O`, for which the MIC in assay [1] and in assay [3] was > 64 µM each time. Besides, the result in assay [2] was inactive.
With `CC[C@H](C)[C@H](NC(=O)[C@H](CCSC)NC(=O)[C@@H](NC(=O)[C@H](C)NC(=O)CNC(=O)[C@H](CC(C)C)NC(=O)[C@H](CC(=O)O)NC(=O)[C@@H](NC(=O)[C@H](CO)NC(=O)[C@H](CO)NC(=O)[C@@H](N)CC(=O)O)C(C)C)[C@@H](C)O)C(=O)N[C@H](C(=O)N[C@@H](CO)C(=O)N[C@@H](CC(N)=O)C(=O)N[C@@H](CCC(N)=O)C(=O)N[C@@H](CC(C)C)C(=O)NCC(=O)N[C@H](C(=O)N[C@H](C(=O)N[C@@H](CCCCNC(=O)c1cccc(O)c1O)C(N)=O)[C@@H](C)CC)[C@@H](C)O)[C@@H](C)O` (H-DSSVDLGATMITSNQLGTIK(Benzoyl(2,3-diOH))-NH2), the MIC in assay [1] and in assay [3] was > 64 µM each time. Besides, in assay [2], the outcome was inactive.
`CC[C@H](C)[C@H](NC(=O)[C@@H](N)C(C)C)C(=O)N[C@@H](CCC(=O)O)C(=O)N[C@@H](CC(C)C)C(=O)NCC(=O)N[C@@H](CCC(=O)O)C(=O)N[C@@H](CCC(N)=O)C(=O)N[C@H](C(=O)N[C@H](C(=O)N[C@H](C(=O)N[C@@H](C)C(=O)N[C@H](C(=O)N[C@@H](C)C(=O)N[C@@H](CCC(N)=O)C(=O)N[C@@H](CCC(=O)O)C(=O)N[C@@H](CCC(=O)O)C(=O)N[C@H](C(=O)N[C@@H](CCCCN)C(=O)N[C@@H](CCC(N)=O)C(=O)N[C@@H](CCCCNC(=O)CCSSCCC(=O)NCCOCCOCCOCCOCCOCCn1cc(CCCC(=O)Nc2c(CNC(=O)c3cccc(O)c3O)cc(CNC(=O)c3cccc(O)c3O)cc2CNC(=O)c2cccc(O)c2O)nn1)C(N)=O)[C@@H](C)O)[C@@H](C)O)C(C)C)C(C)C)[C@@H](C)O` (H-VIELGEQTVVATAQEETKQK(X5)-NH2): the MIC in assay [1] and in assay [3] was > 64 µM each time. Besides, the outcome in assay [2] was inactive.
As for `CC[C@H](C)[C@H](NC(=O)[C@@H](N)C(C)C)C(=O)N[C@@H](CCC(=O)O)C(=O)N[C@@H](CC(C)C)C(=O)NCC(=O)N[C@@H](CCC(=O)O)C(=O)N[C@@H](CCC(N)=O)C(=O)N[C@H](C(=O)N[C@H](C(=O)N[C@H](C(=O)N[C@@H](C)C(=O)N[C@H](C(=O)N[C@@H](C)C(=O)N[C@@H](CCC(N)=O)C(=O)N[C@@H](CCC(=O)O)C(=O)N[C@@H](CCC(=O)O)C(=O)N[C@H](C(=O)N[C@@H](CCCCN)C(=O)N[C@@H](CCC(N)=O)C(=O)N[C@@H](CCCCNC(=O)c1cccc(O)c1O)C(N)=O)[C@@H](C)O)[C@@H](C)O)C(C)C)C(C)C)[C@@H](C)O` (H-VIELGEQTVVATAQEETKQK(Benzoyl(2,3-diOH))-NH2), the MIC in assay [1] and in assay [3] was > 64 µM throughout. Besides, the outcome in assay [2] was inactive.
